# Measured values taken from patent publication US20040248804A1, “Nasal administration of the LH-RH analog Leuprolide” (priority 2003, published 2004).
# Legend:
# [1] = human, in vivo
# Description: The design of the experiment was a five-way, crossover, randomized, partially double-blind, volunteer trial. Women were given leuprolide 1 mg IV and SQ, and IN as novel formulation at 1 mg (one spray), 2 mg (one spray) and 6 mg (three sprays), in random order. There was one dosing regimen on each of five separate days, with each day separated by at least two washout days. Blood for leuprolide measurement was collected via indwelling catheter at baseline and on eighteen occasions, up to twenty four hours after dosing. Plasma was separated and the leuprolide concentrations determined by enzyme linked immunosorbant assays (ELISA). Throughout the study subjects were monitored for adverse events and given nasal examinations.
# [2] = Plasma leuprolide pharmacokinetics after IV, SQ and intranasal (IN) administration, five-way crossover volunteer trial, ELISA; parameters: Absolute bioavailability, % of IV: dose or concentration left out as unconfirmed; details: human, in vivo; for bioavailability / AUC / Cmax: female
# Description: In the following example, the inventors sought to compare the intranasal (“IN”) administration of leuprolide using the methods and compositions of the invention with prior art methods of administration (subcutaneous (“SQ”) and intravenous (“IV”)).
structure (smiles),measurement,setting,value
"CC(=O)O.CCNC(=O)[C@@H]1CCCN1C(=O)[C@H](CCCNC(=N)N)NC(=O)[C@H](CC(C)C)NC(=O)[C@@H](CC(C)C)NC(=O)[C@H](Cc1ccc(O)cc1)NC(=O)[C@H](CO)NC(=O)[C@H](Cc1c[nH]c2ccccc12)NC(=O)[C@H](Cc1c[nH]cn1)NC(=O)[C@@H]1CCC(=O)N1 [leuprolide, 5-oxo-L-prolyl-L-histidyl-L-tryptophyl-L-seryl-L-tyrosyl-D-leucyl-L-leucyl-L-arginyl-N-ethyl-L-prolinamide acetate salt]",Adverse events noted,[1],rhinorrhea and altered taste sensation
same,Serious adverse events,[1],No serious adverse events were reported
same,bioavailability,[2],95 ± 17%
same,AUC,"[2]; inhaled or intranasal, 1 mg",15 ± 8 ng·h/mL
same,Cmax,"[2]; inhaled or intranasal, 1 mg",5 ± 3 ng/mL
same,bioavailability,"[2]; inhaled or intranasal, 1 mg",13 ± 7%
same,AUC,"[2]; inhaled or intranasal, 2 mg",31 ± 16 ng·h/mL
same,Cmax,"[2]; inhaled or intranasal, 2 mg",11 ± 6 ng/mL
same,bioavailability,"[2]; inhaled or intranasal, 2 mg",14 ± 7%
same,AUC,"[2]; inhaled or intranasal, 6 mg",56 ± 28 ng·h/mL
same,Cmax,"[2]; inhaled or intranasal, 6 mg",22 ± 11 ng/mL
same,AUC,"[2]; iv, 1 mg",120 ± 25 ng·h/mL
same,Cmax,"[2]; iv, 1 mg",85 ± 33 ng/mL
same,AUC,"[2]; sc, 1 mg",111 ± 21 ng·h/mL
same,Cmax,"[2]; sc, 1 mg",35 ± 8 ng/mL
same,"Absolute bioavailability, % of IV",[2],8 ± 3 % of IV
same,"Absolute bioavailability, % of IV",[2]; iv,100 % of IV
